Measured values taken from article PMC7278228, “Chemical space exploration based on recurrent neural networks: applications in discovering kinase inhibitors” (Journal of Cheminformatics, 2020).
Values belong to the compound of their own block, whether it stands above or below them.

Experiments:
Type in all cases: biochemical
CDK4 [1] = molecular target: T1, CDK4 (Homo sapiens, UniProt P11802); assay: mobility shift kinase assay ([…] CDK4, […] ATP, FAM-P8)
Pim1 = Pim1 (Homo sapiens, UniProt P11309); assay: mobility shift kinase assay ([…] Pim1, […] ATP, FAM-P20)
Chain of Pim1 (P11309 whole entry): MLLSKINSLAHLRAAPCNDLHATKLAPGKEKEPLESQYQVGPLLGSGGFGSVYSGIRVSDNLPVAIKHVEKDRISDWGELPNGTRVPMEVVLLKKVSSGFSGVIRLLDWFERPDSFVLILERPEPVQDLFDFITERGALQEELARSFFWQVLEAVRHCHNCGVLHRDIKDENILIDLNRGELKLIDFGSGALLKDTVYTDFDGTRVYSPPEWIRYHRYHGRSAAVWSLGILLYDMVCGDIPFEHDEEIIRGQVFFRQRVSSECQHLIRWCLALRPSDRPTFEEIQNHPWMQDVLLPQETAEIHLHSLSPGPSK

CDK4 [2] = molecular target: T1, CDK4; assay: mobility shift kinase assay, % inhibition at […]
CDK4 [3] = molecular target: T1, CDK4; assay: mobility shift kinase assay, % inhibition at […]; remark: listed apart in the source

T1 sequence (P11802 2-303): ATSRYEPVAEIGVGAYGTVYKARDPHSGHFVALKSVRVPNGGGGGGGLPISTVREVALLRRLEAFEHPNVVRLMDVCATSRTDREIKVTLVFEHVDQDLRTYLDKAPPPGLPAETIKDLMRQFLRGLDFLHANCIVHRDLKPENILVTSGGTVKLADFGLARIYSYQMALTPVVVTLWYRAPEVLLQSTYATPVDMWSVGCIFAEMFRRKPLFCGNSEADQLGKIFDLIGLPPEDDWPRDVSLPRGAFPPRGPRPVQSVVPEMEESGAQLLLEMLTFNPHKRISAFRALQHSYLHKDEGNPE
T1 sequence (P30281 whole entry partner): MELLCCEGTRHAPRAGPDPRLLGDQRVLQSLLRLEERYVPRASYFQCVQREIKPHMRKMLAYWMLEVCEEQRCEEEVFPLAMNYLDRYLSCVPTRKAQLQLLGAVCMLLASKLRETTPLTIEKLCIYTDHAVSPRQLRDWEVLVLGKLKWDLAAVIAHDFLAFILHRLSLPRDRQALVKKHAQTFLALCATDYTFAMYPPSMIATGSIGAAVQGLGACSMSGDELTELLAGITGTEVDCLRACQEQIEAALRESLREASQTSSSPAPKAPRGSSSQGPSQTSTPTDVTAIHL

IC50 (CDK4 [1]): 25.3 µM | IC50 (Pim1): 0.0096 µM
SMILES: Oc1ccc(-c2ccc3nnc(-c4ccc5cccc(OC6CCNCC6)c5n4)n3c2)cc1 [MJ-1055]

% inhibition at 10 μM (CDK4 [2]): 57.8 ± 5.0
SMILES: O=C1N=c2ccccc2=C1c1s/c(=N\N=C2\C(=O)Nc3ccccc32)n(-c2ccc(O)cc2)c1O [AF-399/37285031]

Inhibition for CDK4 at 100 μM (%) (CDK4 [3]): 90.74 ± 1.28
SMILES: CC(C)n1cc(C(N)=O)c2cnc(Nc3ccc(N4CCNCC4)cc3)nc21 [MJ-115]
